Test results as given in US20240208901A1, “Deuterated 3,3'-Diselenodipropionic Acid (DSePA) and Its Use as an Anticancer or Radioprotective Agent” (Secretary, Department of Atomic Energy, priority 2022, published 2024).

Experiments:
WI-38 cells = experiment: Clonogenic assay, radioprotection of WI-38 cells against γ-irradiation; type: cell-based, human; conditions: WI-38 cells pretreated 24 h with 0.5 μM drug, γ-irradiation 2-12 Gy, clonogenic assay
Procedure: Further, clonogenic assay is considered as the gold standard method for evaluating the anticancer activity of any compound and is also a good indicator of the in vivo efficacy of any anticancer compound. Therefore, the therapeutic index of DSePA and D-DSePA in A549/WI-38 cells was also validated by employing the clonogenic assay. For this, A549/WI-38 cells were treated with the varying concentrations (0.1-2 μM)/(1-500 μM) of DSePA/D-DSePA for seven days and the survival fraction was calculated by counting the number of surviving clones (FIG. 11A). The plot of survival fraction verses the concentration of DScPA/D-DSCPA was used to estimate the IC50 of above compounds to inhibit the growth of A549/WI-38 cells. […] This clearly confirmed that deuteration of DScPA reduced its toxicity in normal cells without compromising its efficacy in cancer cells. Since anticancer agents are intended to be used in combination with radiation, DSePA/D-DSePA at a treatment concentration of 0.5 μM (dose close to IC50 as determined by clonogenic assay) was combined with varying absorbed doses (2-8 Gy) of γ-irradiation and the effect of combinatorial treatment on the viability of A549 cells was determined by clonogenic assay (FIG. 12A & 12B). For this, A549 cells exposed to the varying absorbed doses (2-8 Gy) of γ-radiation were immediately treated with DScPA/D-DScPA and cultured for seven days prior to clonogenic assay. […] The D10 value of the combinatorial treatment involving DScPA estimated was 4.5 Gy (FIG. 12B). […]
(§1) Clonogenic assay—Clonogenic assay was performed according to the method reported previously. […] After 7 days, colonies were fixed with absolute methanol for 5 min, stained with 0.5% crystal violet for 5 min, washed with distilled water to remove excess stain and counted manually under a stereo microscope. […] The plating efficiency and the survival fraction under irradiated and drug treated conditions were calculated using following formulae: […]
(§2) The plating efficiency of A549 and WI38 cells was calculated by seeding ˜300 and ˜500 cells respectively. […]

A549 cells = experiment: Clonogenic assay in A549 cells; type: cell-based, human; conditions: Homo sapiens, 168 h, seven days treatment, read-out: IC50 to inhibit growth (survival fraction)
Procedure: Further, clonogenic assay is considered as the gold standard method for evaluating the anticancer activity of any compound and is also a good indicator of the in vivo efficacy of any anticancer compound. Therefore, the therapeutic index of DSePA and D-DSePA in A549/WI-38 cells was also validated by employing the clonogenic assay. For this, A549/WI-38 cells were treated with the varying concentrations (0.1-2 μM)/(1-500 μM) of DSePA/D-DSePA for seven days and the survival fraction was calculated by counting the number of surviving clones (FIG. 11A). The plot of survival fraction verses the concentration of DScPA/D-DSCPA was used to estimate the IC50 of above compounds to inhibit the growth of A549/WI-38 cells. […] This clearly confirmed that deuteration of DScPA reduced its toxicity in normal cells without compromising its efficacy in cancer cells. […]
as §1, §2

`O=C(O)CC[Se][Se]CCC(=O)O` [DSePA, 3,3′-diselenodipropionic acid] was tested, and the “dose modification factor (DMF, D10 of radiation plus drug / D10 of radiation alone)” value (WI-38 cells) was 1.12±0.03 and the IC50 (A549 cells) was 1.2 ± 0.01 µM.
